Reference: ChEMBL document CHEMBL1131999, “Design, synthesis and testing of amino-bicycloaryl based orally bioavailable thrombin inhibitors” (Bioorg Med Chem Lett, 1999)
pIC50: −log10 of the molar value.

Key:
Prothrombin = Prothrombin (Homo sapiens, UniProt P00734); assay: In vitro thrombin inhibition
Serine protease 1 = Serine protease 1 (Homo sapiens, UniProt P07477); assay: In vitro trypsin inhibition
Caco-2 = details: Homo sapiens
Description: The compound was evaluated in vitro for the Caco-2 cell permeability.

[1] = Oral bioavailability in dog; assay type: ADME, organism-based, Canis lupus familiaris; details: in vivo

Chain of Serine protease 1 (P07477 whole entry): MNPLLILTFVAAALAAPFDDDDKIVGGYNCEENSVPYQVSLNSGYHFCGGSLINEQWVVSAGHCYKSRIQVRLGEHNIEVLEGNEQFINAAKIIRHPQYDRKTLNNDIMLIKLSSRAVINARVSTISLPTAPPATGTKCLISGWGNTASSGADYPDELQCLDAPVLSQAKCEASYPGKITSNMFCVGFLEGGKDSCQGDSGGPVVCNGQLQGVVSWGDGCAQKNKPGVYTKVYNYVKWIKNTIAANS

Structure (SMILES)	pIC50 (Prothrombin)	pIC50 (Serine protease 1)	bioavailability [1]	Papp (Caco-2)
COc1ccc2ccc(S(=O)(=O)NC(Cc3cc4c(N)nccc4s3)C(=O)N3CCN(S(C)(=O)=O)CC3)cc2c1 (stereo not given)	6.25	4.74		
COc1ccc2ccc(S(=O)(=O)NC(Cc3ccc4c(N)nccc4c3)C(=O)N3CCC(C)CC3)cc2c1 (stereo not given)	4.32	4.57		7.5 ×10⁻⁶ cm/s
COc1ccc2ccc(S(=O)(=O)NC(Cc3ccc4ccnc(N)c4c3)C(=O)N3CCC(C)CC3)cc2c1 (stereo not given)	6.20	5.10		
CC1CCN(C(=O)C(Cc2cc3c(N)nccc3s2)NS(=O)(=O)c2ccc3ccccc3c2)CC1 (stereo not given)	3.68	3.69		11.7 ×10⁻⁶ cm/s
COc1ccc2ccc(S(=O)(=O)NC(Cc3cc4c(N)nccc4o3)C(=O)N3CCC(C)CC3)cc2c1 (stereo not given)	5.80	5.22		0.9 ×10⁻⁶ cm/s
COc1cc2ccc(S(=O)(=O)NC(Cc3cc4c(N)nccc4s3)C(=O)N3CCC(C)CC3)cc2cc1OC (stereo not given)	5.30	5.40		
CC1CCN(C(=O)C(Cc2cccc(C(=N)N)c2)NS(=O)(=O)c2ccc3ccccc3c2)CC1 (stereo not given)	6.19	5.72		

Now from value to compound, other results behind:

pIC50 (Prothrombin)	pIC50 (Serine protease 1)	bioavailability [1]	Structure (SMILES)	Papp (Caco-2)
5.22	4.89		COc1ccc2ccc(S(=O)(=O)NC(Cc3cc4c(N)nccc4s3)C(=O)N3CCN(C)CC3)cc2c1 (stereo not given)	
	5.40	36%	COc1ccc2ccc(S(=O)(=O)NC(Cc3cc4c(N)nccc4s3)C(=O)N3CCC(C)CC3)cc2c1 (stereo not given)	12.1 ×10⁻⁶ cm/s
5.85	5.70		COc1ccc2ccc(S(=O)(=O)NC(Cc3cc4c(N)nccc4s3)C(=O)N3CCC(C(C)=O)CC3)cc2c1 (stereo not given)	2.3 ×10⁻⁶ cm/s
